Data taken from US20240317744A1, “Bicyclic Ureas As Kinase Inhibitors” (Incyte Corporation, priority 2023, published 2024).

Experiments:
[1] = molecular target: T1, pseudo-kinase domain (JH2, amino-acids 536-812) of human V617F mutant JAK2 (Homo sapiens, UniProt O60674, F794H/V617F/W659A/W777A); test: JAK2 LanthaScreen JH2-V617F Binding Assay; conditions: JAK2 JH2-V617F 0.26 nM, 50 nM tracer, 1 hour at 25° C.; read-out: JH2 BIND V617F
T1 construct: pseudo-kinase domain (JH2, amino-acids 536-812 with 3 surface mutations W659A, W777A, F794H); His (C); purchased BPS Bioscience 79498; host or cells: baculovirus expression system
Procedure: Example C. JAK2 LanthaScreen JH2-V617F Binding Assay
JAK2 JH2-V617F binding assay utilizes pseudo-kinase domain (JH2, amino-acids 536-812 with 3 surface mutations W659A, W777A, F794H) of human V617F mutant JAK2 expressed as C-terminal His-Avi-tagged, biotinylated protein in a baculovirus expression system (BPS Bioscience, Catalog #79498). The assay was conducted in black 384-well polystyrene plates in a final reaction volume of 20 μL. JAK2 JH2-V617F (0.26 nM) was incubated with compounds (100 nL serially diluted in DMSO) in the presence of 50 nM Fluorescent JAK2-JH2 Tracer (MedChem Express Catalog #HY-102055) and 0.25 nM Streptavidin-Tb cryptate (Cisbio Part #610SATLB) in assay buffer (50 mM Tris, pH=7.5, 10 mM MgCl2, 0.01% Brij-35, 0.1% BSA, 1 mM EGTA, 5% Glycerol and 5 mM DTT). Non-specific binding was accessed in the presence of 2 mM ATP. After incubation for 1 hour at 25° C., LanthaScreen signals were read on a PHERAstar FS plate reader (BMG LABTECH). Data was analyzed with IDBS XLfit and GraphPad Prism 5.0 software using a four parameter dose response curve to determine IC50 for each compound.

[2] = molecular target: catalytic domain (JH1, amino acids 808-1132) of human JAK2 (Homo sapiens, UniProt O60674); test: JAK2 HTRF Enzyme Activity Assay; format: biochemical; conditions: ATP 30 µM, 60 minutes at 25° C.; read-out: V617F ENZ 30 UM
catalytic domain (JH1, amino acids 808-1132) of human JAK2, sequence (O60674 808-1132 limits assumed): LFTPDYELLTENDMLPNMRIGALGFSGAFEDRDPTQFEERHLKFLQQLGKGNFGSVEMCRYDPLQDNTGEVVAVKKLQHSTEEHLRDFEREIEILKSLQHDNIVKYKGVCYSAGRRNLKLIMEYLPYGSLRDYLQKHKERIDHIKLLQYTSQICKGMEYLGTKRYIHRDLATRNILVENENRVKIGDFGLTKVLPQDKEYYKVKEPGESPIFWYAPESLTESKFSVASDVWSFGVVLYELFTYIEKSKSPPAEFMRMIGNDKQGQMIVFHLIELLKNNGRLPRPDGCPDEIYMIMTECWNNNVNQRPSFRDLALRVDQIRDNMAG

T1 sequence (O60674 536-812 V617F/W659A/W777A/F794H): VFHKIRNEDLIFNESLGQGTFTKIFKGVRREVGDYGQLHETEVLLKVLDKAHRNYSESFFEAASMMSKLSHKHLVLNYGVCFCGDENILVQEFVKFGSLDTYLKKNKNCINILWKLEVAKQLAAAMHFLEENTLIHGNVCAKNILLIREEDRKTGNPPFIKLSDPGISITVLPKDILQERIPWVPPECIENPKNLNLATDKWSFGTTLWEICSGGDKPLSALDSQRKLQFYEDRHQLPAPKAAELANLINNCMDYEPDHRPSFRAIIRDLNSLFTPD

| SMILES | IC50 [1] [µM] | IC50 [2] [µM] |
| --- | --- | --- |
| [2H]C([2H])([2H])n1c(=O)n([C@@H]2CC[C@](C)(NC(C)=O)C2)c2cc(Nc3ccc4c(n3)c(-c3cnn(C(F)(F)F)c3)nn4CC(C)(C)O)ncc21 [Example 129, N-((1S,3R)-3-(6-((1-(2-Hydroxy-2-methylpropyl)-3-(1-(trifluoromethyl)-1H-pyrazol-4-yl)-1H-pyrazolo[4,3-b]pyridin-5-yl)amino)-3-(methyl-d3)-2-oxo-2,3-dihydro-1H-imidazo[4,5-c]pyridin-1-yl)-1-methylcyclopentyl)acetamide] | ≤ 0.01 | > 1 |
| [2H]C1(NC(=O)OC)CC[C@@H](n2c(=O)n(C([2H])([2H])[2H])c3cnc(Nc4cc(C(C)(C)O)c5[nH]cc(-c6cnn(C(F)(F)F)c6)c5n4)cc32)C1 (stereo partly drawn) [Example 130, Methyl ((3R)-3-(6-((7-(2-hydroxypropan-2-yl)-3-(1-(trifluoromethyl)-1H-pyrazol-4-yl)-1H-pyrrolo[3,2-b]pyridin-5-yl)amino)-3-(methyl-d3)-2-oxo-2,3-dihydro-1H-imidazo[4,5-c]pyridin-1-yl)cyclopentyl-1-d)carbamate] | ≤ 0.01 | > 1 |
| [2H]C1(NC(=O)OC)CC[C@@H](n2c(=O)n(C([2H])([2H])[2H])c3cnc(Nc4cc(C(C)(C)O)c5ccn(-c6cnn(C(F)(F)F)c6)c5n4)cc32)C1 (stereo partly drawn) [Example 131, Methyl ((3R)-3-(6-((4-(2-hydroxypropan-2-yl)-1-(1-(trifluoromethyl)-1H-pyrazol-4-yl)-1H-pyrrolo[2,3-b]pyridin-6-yl)amino)-3-(methyl-d3)-2-oxo-2,3-dihydro-1H-imidazo[4,5-c]pyridin-1-yl)cyclopentyl-1-d)carbamate] | ≤ 0.01 | > 1 |
| [2H]C1(NC(=O)OC)CC[C@@H](n2c(=O)n(C([2H])([2H])[2H])c3cnc(Nc4ccc5c(n4)c(-c4cnn(C(F)(F)F)c4)nn5C4CCOCC4)cc32)C1 (stereo partly drawn) [Example 132, Methyl ((3R)-3-(3-(methyl-d3)-2-oxo-6-((1-(tetrahydro-2H-pyran-4-yl)-3-(1-(trifluoromethyl)-1H-pyrazol-4-yl)-1H-pyrazolo[4,3-b]pyridin-5-yl)amino)-2,3-dihydro-1H-imidazo[4,5-c]pyridin-1-yl)cyclopentyl-1-d)carbamate] | ≤ 0.01 | > 1 |
| [2H]C1(NC(=O)OC)CC[C@@H](n2c(=O)n(C([2H])([2H])[2H])c3cnc(Nc4ccc5c(n4)c(-c4cnn(C(F)(F)F)c4)nn5CC4(C#N)CC4)cc32)C1 (stereo partly drawn) [Example 133, Methyl ((3R)-3-(6-((1-((1-cyanocyclopropyl)methyl)-3-(1-(trifluoromethyl)-1H-pyrazol-4-yl)-1H-pyrazolo[4,3-b]pyridin-5-yl)amino)-3-(methyl-d3)-2-oxo-2,3-dihydro-1H-imidazo[4,5-c]pyridin-1-yl)cyclopentyl-1-d)carbamate] | ≤ 0.01 | > 1 |
| [2H]C1(NC(=O)OC)CC[C@@H](n2c(=O)n(C([2H])([2H])[2H])c3cnc(Nc4ccc5nn(CC6(C#N)CC6)c(-c6cnn(C(F)(F)F)c6)c5n4)cc32)C1 (stereo partly drawn) [Example 134, Methyl ((3R)-3-(6-((2-((1-cyanocyclopropyl)methyl)-3-(1-(trifluoromethyl)-1H-pyrazol-4-yl)-2H-pyrazolo[4,3-b]pyridin-5-yl)amino)-3-(methyl-d3)-2-oxo-2,3-dihydro-1H-imidazo[4,5-c]pyridin-1-yl)cyclopentyl-1-d)carbamate] | ≤ 0.01 | > 1 |
| [2H]C([2H])([2H])n1c(=O)n([C@@H]2CC[C@](C)(NC(C)=O)C2)c2cc(Nc3cc(C(C)(C)O)cc(-c4ncc(Cl)s4)n3)ncc21 [Example 136, N-((1S,3R)-3-(6-((6-(5-Chlorothiazol-2-yl)-4-(2-hydroxypropan-2-yl)pyridin-2-yl)amino)-3-(methyl-d3)-2-oxo-2,3-dihydro-1H-imidazo[4,5-c]pyridin-1-yl)-1-methylcyclopentyl)acetamide] | ≤ 0.01 | > 1 |
| [2H]C([2H])([2H])NC(=O)C12CCC(n3c(=O)n(C([2H])([2H])[2H])c4cnc(Nc5cc(C(C)(C)O)cc(-c6ncc(C(F)(F)F)s6)n5)cc43)(CC1)CC2 [Example 137, 4-(6-((4-(2-Hydroxypropan-2-yl)-6-(5-(trifluoromethyl)thiazol-2-yl)pyridin-2-yl)amino)-3-(methyl-d3)-2-oxo-2,3-dihydro-1H-imidazo[4,5-c]pyridin-1-yl)-N-(methyl-d3)bicyclo[2.2.2]octane-1-carboxamide] | ≤ 0.01 | > 1 |
| [2H]C([2H])([2H])n1c(=O)n(C23CCC(C(=O)NC4CC4)(CC2)CC3)c2cc(Nc3cc(C(C)(C)O)cc(-c4ncc(C(F)(F)F)s4)n3)ncc21 [Example 138, N-Cyclopropyl-4-(6-((4-(2-hydroxypropan-2-yl)-6-(5-(trifluoromethyl)thiazol-2-yl)pyridin-2-yl)amino)-3-(methyl-d3)-2-oxo-2,3-dihydro-1H-imidazo[4,5-c]pyridin-1-yl)bicyclo[2.2.2]octane-1-carboxamide] | ≤ 0.01 | > 1 |
| [2H]C([2H])([2H])n1c(=O)n(C23CCC(C(N)=O)(CC2)CC3)c2cc(Nc3cc(C(C)(C)O)cc(-c4ncc(C(F)(F)F)s4)n3)ncc21 [Example 139, 4-(6-((4-(2-Hydroxypropan-2-yl)-6-(5-(trifluoromethyl)thiazol-2-yl)pyridin-2-yl)amino)-3-(methyl-d3)-2-oxo-2,3-dihydro-1H-imidazo[4,5-c]pyridin-1-yl)bicyclo[2.2.2]octane-1-carboxamide] | ≤ 0.01 | > 1 |
| [2H]C([2H])([2H])n1c(=O)n(C23CCC(NC(C)=O)(CC2)CC3)c2cc(Nc3cc(C(C)(C)O)cc(-c4ncc(C(F)(F)F)s4)n3)ncc21 [Example 140, N-(4-(6-((4-(2-Hydroxypropan-2-yl)-6-(5-(trifluoromethyl)thiazol-2-yl)pyridin-2-yl)amino)-3-(methyl-d3)-2-oxo-2,3-dihydro-1H-imidazo[4,5-c]pyridin-1-yl)bicyclo[2.2.2]octan-1-yl)acetamide] | ≤ 0.01 | > 1 |
| [2H]C([2H])([2H])n1c(=O)n(C23CCC(C(N)=O)(CC2)C3)c2cc(Nc3cc(C(C)(C)O)cc(-c4ncc(C(F)(F)F)s4)n3)ncc21 [Example 141, 4-(6-((4-(2-Hydroxypropan-2-yl)-6-(5-(trifluoromethyl)thiazol-2-yl)pyridin-2-yl)amino)-3-(methyl-d3)-2-oxo-2,3-dihydro-1H-imidazo[4,5-c]pyridin-1-yl)bicyclo[2.2.1]heptane-1-carboxamide] | ≤ 0.01 | > 1 |
| [2H]C([2H])([2H])n1c(=O)n(C23CCC(NC(C)=O)(CC2)C3)c2cc(Nc3cc(C(C)(C)O)cc(-c4ncc(C(F)(F)F)s4)n3)ncc21 [Example 142, N-(4-(6-((4-(2-Hydroxypropan-2-yl)-6-(5-(trifluoromethyl)thiazol-2-yl)pyridin-2-yl)amino)-3-(methyl-d3)-2-oxo-2,3-dihydro-1H-imidazo[4,5-c]pyridin-1-yl)bicyclo[2.2.1]heptan-1-yl)acetamide] | ≤ 0.01 | > 1 |
| [2H]C([2H])([2H])n1c(=O)n([C@@H]2CC[C@](C)(NC(=O)CC)C2)c2cc(Nc3cc(C(C)(C)O)cc(-c4ncc(C(F)(F)F)s4)n3)ncc21 [Example 143, N-((1S,3R)-3-(6-((4-(2-Hydroxypropan-2-yl)-6-(5-(trifluoromethyl)thiazol-2-yl)pyridin-2-yl)amino)-3-(methyl-d3)-2-oxo-2,3-dihydro-1H-imidazo[4,5-c]pyridin-1-yl)-1-methylcyclopentyl)propionamide] | ≤ 0.01 | > 1 |
| [2H]C([2H])([2H])n1c(=O)n([C@@H]2CC[C@](C)(NC(C)=O)C2)c2cc(Nc3cc(C(C)(C)O)cc(-c4cnc(C(F)(F)F)s4)n3)ncc21 [Example 146, N-((1S,3R)-3-(6-((4-(2-Hydroxypropan-2-yl)-6-(2-(trifluoromethyl)thiazol-5-yl)pyridin-2-yl)amino)-3-(methyl-d3)-2-oxo-2,3-dihydro-1H-imidazo[4,5-c]pyridin-1-yl)-1-methylcyclopentyl)acetamide] | ≤ 0.01 | > 1 |
| [2H]C([2H])([2H])n1c(=O)n([C@@H]2CC[C@@]([2H])(NC(=O)OC)C2)c2cc(Nc3cc(C(C)(C)O)cc(-c4ncc(C(O)(C(F)(F)F)C(F)(F)F)s4)n3)ncc21 [Example 147, Methyl ((1R,3R)-3-(6-((6-(5-(1,1,1,3,3,3-hexafluoro-2-hydroxypropan-2-yl)thiazol-2-yl)-4-(2-hydroxypropan-2-yl)pyridin-2-yl)amino)-3-(methyl-d3)-2-oxo-2,3-dihydro-1H-imidazo[4,5-c]pyridin-1-yl)cyclopentyl-1-d)carbamate] | ≤ 0.01 | > 1 |
